From patent US20090062273A1, “3-H-pyrazolopyridines and salts thereof, pharmaceutical compositions comprising same, methods of preparing same and uses of same” (priority 2006, published 2009) come the findings set out here.

Each structure is given as a SMILES string.

For test [1], the target named is T1, Tie2 (Homo sapiens, UniProt Q02763). Put plainly: Tie2 ELISA assay (cellular Tie2 autophosphorylation). The class given is cell-based. Also noted: expressed in transfected cells; host or cells: CHO (CHO Tie2/DHFR). The settings on record: CHO cells stably transfected with Tie2, stimulated by angiopoietin-2; Tie2 autophosphorylation by sandwich-ELISA; read-out: Tie 2 activity (assay 1). On the procedure: Cellular activity of compounds of the present invention as inhibitors of Tie2 kinase activity was measured employing a Tie2 ELISA assay as described in the following paragraphs. Herein CHO cell-cultures, which are stably transfected by known techniques with Tie2 using DHFR deficiency as selection marker, are stimulated by angiopoietin-2. The specific autophosphorylation of Tie2 receptors is quantified with a sandwich-ELISA using anti-Tie2 antibodies for catch and anti-phosphotyrosine antibodies coupled to HRP for detection.
• 96 well tissue culture plate, sterile, Greiner • 96 well FluoroNunc plate MaxiSorp Surface C, Nunc • 96 well plate polypropylene for compound dilution in DMSO • CHO Tie2/DHFR (transfected cells) • PBS−; PBS++, DMSO • MEM alpha Medium with Glutamax-I without Ribonucleosides and Deoxyribonucleosides (Gibco #32561-029) • with 10% FCS after dialysis! and 1% PenStrep • Lysis buffer: 1 Tablet “Complete” protease inhibitor • 1 cap Vanadate (1 mL>40 mg/mL; working solution 2 mM) • ad 50 mL with Duschl-Puffer • pH 7.6 • Anti-Tie2-antibody 1:425 in Coating Buffer pH 9.6 • Stock solution: 1.275 mg/mL>working.: 3 μg/mL • PBST: 2 bottles PBS (10×)+10 ml Tween, fill up with VE-water • RotiBlock 1:10 in VE-water • Anti-Phosphotyrosine HRP-Conjugated 1:10000 in 3% TopBlock • 3% TopBlock in PBST • BM Chemiluminescence ELISA Substrate (POD) • solution B 1:100 solution A • SF9 cell culture medium • Ang2-Fc in SF9 cell culture medium
• Dispense 5×10^4 cells/well/98 μL in 96 well tissue culture plate • Incubate at 37° C./5% CO2 • After 24 h add compounds according to desired concentrations • Add also to control and stimulated values without compounds 2 μL DMSO • And mix for a few min at room temperature • Add 100 μL Ang2-Fc to all wells except control, which receives insect medium • Incubate 20 min at 37° C. • Wash 3× with PBS++ • Add 100 μl Lysis buffer/well and shake a couple of min at room temperature • Store lysates at […] before utilizing for the ELISA
• Coat 96 well FluoroNunc Plate MaxiSorp Surface C with anti-Tie2 mAb 1:425 in Coating buffer pH 9.6; 100 μL/well overnight at 4° C. • Wash 2× with PBST • Block plates with 250 μL/well RotiBlock 1:10 in VE-water • Incubate for 2 h at room temperature or overnight at 4° C. shaking • Wash 2× in PBST • Add thawed lysates to wells and incubate overnight shaking at 4° C. • Wash 2× with PBST • Add 100 μL/well anti-Phosphotyrosine HRP-Conjugated 1:10000 in 3% TopBlock (3% TopBlock in PBST) and incubate overnight under shaking • Wash 6× with PBST • Add 100 μL/well BM Chemiluminescence ELISA Substrate (POD) solutions 1 und 2 (1:100) • Determine luminescence with the LumiCount. Assay 2: Tie-2-Kinase HTRF-Assay without Kinase Preactivation
Target sequence in this assay (Q02763 23-1124, species assumed): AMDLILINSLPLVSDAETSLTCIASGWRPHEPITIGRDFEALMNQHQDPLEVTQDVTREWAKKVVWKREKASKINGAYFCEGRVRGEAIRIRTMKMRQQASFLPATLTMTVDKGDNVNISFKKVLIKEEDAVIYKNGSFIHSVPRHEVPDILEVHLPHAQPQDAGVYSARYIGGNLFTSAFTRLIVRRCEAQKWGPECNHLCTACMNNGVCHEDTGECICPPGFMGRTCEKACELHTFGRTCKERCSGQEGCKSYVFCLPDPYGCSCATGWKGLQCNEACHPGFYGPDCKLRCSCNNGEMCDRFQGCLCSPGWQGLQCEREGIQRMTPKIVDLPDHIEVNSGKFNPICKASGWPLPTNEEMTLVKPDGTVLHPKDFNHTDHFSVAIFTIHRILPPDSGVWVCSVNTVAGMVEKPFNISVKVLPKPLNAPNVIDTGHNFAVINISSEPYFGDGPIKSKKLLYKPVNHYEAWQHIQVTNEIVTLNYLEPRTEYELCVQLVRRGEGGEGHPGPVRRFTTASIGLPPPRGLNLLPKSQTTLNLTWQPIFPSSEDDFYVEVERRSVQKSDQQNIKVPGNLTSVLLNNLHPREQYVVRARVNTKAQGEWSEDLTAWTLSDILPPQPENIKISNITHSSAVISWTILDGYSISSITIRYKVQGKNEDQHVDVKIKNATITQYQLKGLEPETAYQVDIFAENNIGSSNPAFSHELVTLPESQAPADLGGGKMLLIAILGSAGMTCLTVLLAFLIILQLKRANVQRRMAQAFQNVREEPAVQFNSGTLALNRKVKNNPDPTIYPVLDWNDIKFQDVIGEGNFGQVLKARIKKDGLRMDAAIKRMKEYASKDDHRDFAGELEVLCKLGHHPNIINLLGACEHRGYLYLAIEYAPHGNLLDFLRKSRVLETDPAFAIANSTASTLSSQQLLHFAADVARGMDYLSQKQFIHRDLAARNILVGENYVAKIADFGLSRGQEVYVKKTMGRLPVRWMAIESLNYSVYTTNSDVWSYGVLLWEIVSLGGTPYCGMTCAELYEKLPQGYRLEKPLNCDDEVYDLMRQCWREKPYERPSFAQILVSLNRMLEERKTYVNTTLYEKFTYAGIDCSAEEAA

The target of test [2] is T1, Tie2. The test is described as follows: Tie-2-Kinase HTRF-Assay without kinase preactivation. Details: fusion protein of GST and the intracellular domains of Tie-2; GST; made in house; host or cells: insect cells (Hi-5). The class given is biochemical. Particulars: GST-Tie-2 intracellular domains, 10 μM ATP. The text has this: Tie2-inhibitory activity of compounds of the present invention was quantified employing two Tie2 HTRF assay as described in the following paragraphs.
A recombinant fusion protein of GST and the intracellular domains of Tie-2, expressed in insect cells (Hi-5) and purified by Glutathion-Sepharose affinity chromatography was used as kinase. Alternatively, commercially available GST-Tie2-fusion protein (Upstate Biotechnology, Dundee, Scotland) can be used As substrate for the kinase reaction the biotinylated peptide biotin-Ahx-EPKDDAYPLYSDFG (C-terminus in amid form) was used which can be purchased e.g. from the company Biosynthan GmbH (Berlin-Buch, Germany). Detection of phosphorylated product is achieved specifically by a trimeric detection complex consisting of the phosphorylated substrate, streptavidin-XLent (SA-XLent) which binds to biotin, and Europium Cryptate-labeled anti-phosphotyrosine antibody PT66 which binds to phosphorylated tyrosine.
Tie-2 (3.5 ng/measurement point) was incubated for 60 min at 22° C. in the presence of 10 μM adenosine-tri-phosphate (ATP) and 1 μM substrate peptide (biotin-Ahx-EPKDDAYPLYSDFG-NH2) with different concentrations of test compounds (0 μM and concentrations in the range 0.001-20 μM) in 5 μl assay buffer [50 mM Hepes/NaOH pH 7, 10 mM MgCl2, 0.5 mM MnCl2, 1.0 mM dithiothreitol, 0.01% NP40, protease inhibitor mixture (“Complete w/o EDTA” from Roche, 1 tablet per 2.5 ml), 1% (v/v) dimethylsulfoxide]. The reaction was stopped by the addition of 5 μl of an aqueous buffer (25 mM Hepes/NaOH pH 7.5, 0.28% (w/v) bovine serum albumin) containing EDTA (90 mM) and the HTRF (Homogeneous Time Resolved Fluorescence) detection reagents streptavidine-XLent (0.2 μM, from Cis Biointernational, Marcoule, France) and PT66-Eu-Chelate (0.3 ng/μl; a europium-chelate labelled anti-phospho-tyrosine antibody from Perkin Elmer).
The resulting mixture was incubated 1 h at 22° C. to allow the binding of the biotinylated phosphorylated peptide to the streptavidine-XLent and the PT66-Eu-Chelate. Subsequently the amount of phosphorylated substrate peptide was evaluated by measurement of the resonance energy transfer from the PT66-Eu-Chelate to the streptavidine-XLent. Therefore, the fluorescence emissions at 620 nm and 665 nm after excitation at 350 nm was measured in a HTRF reader, e.g. a Rubystar (BMG Labtechnologies, Offenburg, Germany) or a Viewlux (Perkin-Elmer). The ratio of the emissions at 665 nm and at […] was taken as the measure for the amount of phosphorylated substrate peptide. The data were normalised (enzyme reaction without inhibitor=0% inhibition, all other assay components but no enzyme=100% inhibition) and IC50 values were calculated by a 4 parameter fit using an inhouse software.
Target sequence in this assay (Q02763 770-1124 limits assumed, species assumed): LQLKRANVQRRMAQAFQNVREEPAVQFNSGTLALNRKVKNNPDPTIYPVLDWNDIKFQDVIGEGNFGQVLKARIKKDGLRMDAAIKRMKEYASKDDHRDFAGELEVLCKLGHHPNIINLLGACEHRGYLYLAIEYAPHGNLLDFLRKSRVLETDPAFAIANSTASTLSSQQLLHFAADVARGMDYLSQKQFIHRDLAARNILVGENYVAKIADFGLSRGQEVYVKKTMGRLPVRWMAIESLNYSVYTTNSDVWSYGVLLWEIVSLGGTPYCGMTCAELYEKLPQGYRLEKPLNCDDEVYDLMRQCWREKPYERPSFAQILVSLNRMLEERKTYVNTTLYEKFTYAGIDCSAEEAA
On the technique in general: Time-resolved FRET reads energy transfer from a long-lived donor to a nearby acceptor.

Regarding `CC(C)c1cc(NC(=O)Nc2ccc(-c3cncc4c3cnn4C)cc2)n(-c2cccc(F)c2)n1` [Example 15.1, 1-[2-(3-Fluoro-phenyl)-5-isopropyl-2H-pyrazol-3-yl]-3-[4-(1-methyl-1H-pyrazolo[3,4-c]pyridin-4-yl)-phenyl]-urea], the IC50 at Tie2 [1] and at Tie2 [2] was below 501 nM each time.

On to `CN1CCN(Cc2ccc(NC(=O)Nc3ccc(-c4cncc5c4cnn5CCO)cc3)cc2C(F)(F)F)CC1` [Example 8.6, 1-{4-[1-(2-Hydroxy-ethyl)-1H-pyrazolo[3,4-c]pyridin-4-yl]-phenyl}-3-[4-(4-methyl-piperazin-1-ylmethyl)-3-trifluoromethyl-phenyl]-urea], for which the IC50 at Tie2 [1] and on Tie2 [2] was below 501 nM in each case.

With `Cn1ncc2c(-c3ccc(NC(=O)Nc4cc(C(F)(F)F)ccc4Cl)cc3)cncc21` [Example 1.13, 1-(2-Chloro-5-trifluoromethyl-phenyl)-3-[4-(1-methyl-1H-pyrazolo[3,4-c]pyridin-4-yl)-phenyl]-urea], the IC50 at Tie2 [1] and on Tie2 [2] was below 501 nM each time.

On to `CN(C)C1CCN(c2ccc(C(F)(F)F)cc2NC(=O)Nc2ccc(-c3cncc4c3cnn4C)cc2)C1` (centres unmarked) [Example 13.12, 1-[2-(3-Dimethylamino-pyrrolidin-1-yl)-5-trifluoromethyl-phenyl]-3-[4-(1-methyl-1H-pyrazolo[3,4-c]pyridin-4-yl)-phenyl]-urea], for which the IC50 on Tie2 [1] and on Tie2 [2] was below 501 nM in each case.

With `CN(C)c1ccc(C(F)(F)F)cc1NC(=O)Nc1ccc(-c2cncc3c2cnn3C)cc1` [Example 13.11, 1-(2-Dimethylamino-5-trifluoromethyl-phenyl)-3-[4-(1-methyl-1H-pyrazolo[3,4-c]pyridin-4-yl)-phenyl]-urea], the IC50 on Tie2 [1] and against Tie2 [2] was below 501 nM throughout.

As for `Cn1ncc2c(-c3ccc(NC(=O)Nc4cc(C(C)(C)C)nn4-c4cncc(F)c4)c(F)c3)cncc21` [Example 15.13, 1-[5-tert-Butyl-2-(5-fluoro-pyridin-3-yl)-2H-pyrazol-3-yl]-3-[2-fluoro-4-(1-methyl-1H-pyrazolo[3,4-c]pyridin-4-yl)-phenyl]-urea], the IC50 at Tie2 [1] and at Tie2 [2] was below 501 nM throughout.

In the case of `CN1CCN(Cc2ccc(NC(=O)Nc3ccc(-c4cncc5c4cnn5C)cc3)cc2C(F)(F)F)CC1` [Example 6.4, 1-[4-(4-Methyl-piperazin-1-ylmethyl)-3-trifluoromethyl-phenyl]-3-[4-(1-methyl-1H-pyrazolo[3,4-c]pyridin-4-yl)-phenyl]-urea], the IC50 on Tie2 [1] and on Tie2 [2] was below 501 nM each time.

Regarding `COCCn1ncc2c(-c3ccc(NC(=O)Nc4cccc(C(F)(F)F)c4)c(F)c3)cncc21` [Example 12.4, 1-{2-Fluoro-4-[1-(2-methoxy-ethyl)-1H-pyrazolo[3,4-c]pyridin-4-yl]-phenyl}-3-(3-trifluoromethyl-phenyl)-urea], the IC50 on Tie2 [1] and at Tie2 [2] was below 501 nM in each case.

Turning to `O=C(Nc1ccc(-c2cncc3c2cnn3CCO)cc1F)Nc1cc(C(F)(F)F)ccc1F` [Example 8.1, 1-{2-Fluoro-4-[1-(2-hydroxy-ethyl)-1H-pyrazolo[3,4-c]pyridin-4-yl]-phenyl}-3-(2-fluoro-5-trifluoromethyl-phenyl)-urea], the IC50 on Tie2 [1] and at Tie2 [2] was below 501 nM each time.

Consider `Cc1cc(-c2cncc3c2cnn3C)ccc1NC(=O)Nc1cccc(C(F)(F)F)c1` [Example 4.1, 1-[2-Methyl-4-(1-methyl-1H-pyrazolo[3,4-c]pyridin-4-yl)-phenyl]-3-(3-trifluoromethyl-phenyl)-urea], for which the IC50 at Tie2 [1] and against Tie2 [2] was below 501 nM in each case.

For `Cn1ncc2c(-c3ccc(NC(=O)Nc4cc(C(C)(C)C)on4)cc3)cncc21` [Example 13.2, 1-(5-tert-Butyl-isoxazol-3-yl)-3-[4-(1-methyl-1H-pyrazolo[3,4-c]pyridin-4-yl)-phenyl]-urea], the IC50 at Tie2 [1] and on Tie2 [2] was below 501 nM in each case.

As to `CCc1cccc(NC(=O)Nc2ccc(-c3cncc4c3cnn4C)cc2)c1` [Example 1.5, 1-(3-Ethyl-phenyl)-3-[4-(1-methyl-1H-pyrazolo[3,4-c]pyridin-4-yl)-phenyl]-urea], the IC50 on Tie2 [1] and at Tie2 [2] was below 501 nM in each case.

In the case of `CN(C)CCN(C)c1ccc(C(F)(F)F)cc1NC(=O)Nc1ccc(-c2cncc3c2cnn3C)cc1` [Example 13.13, 1-{2-[(2-Dimethylamino-ethyl)-methyl-amino]-5-trifluoromethyl-phenyl}-3-[4-(1-methyl-1H-pyrazolo[3,4-c]pyridin-4-yl)-phenyl]-urea], the IC50 on Tie2 [1] and on Tie2 [2] was below 501 nM throughout.

On to `Cn1ncc2c(-c3ccc(NC(=O)Nc4cc(C(F)(F)F)ccc4F)cc3)cncc21` [Example 1.2, 1-(2-Fluoro-5-trifluoromethyl-phenyl)-3-[4-(1-methyl-1H-pyrazolo[3,4-c]pyridin-4-yl)-phenyl]-urea], for which the IC50 on Tie2 [1] and at Tie2 [2] was below 501 nM throughout.

With `Cn1nc(C(C)(C)C)cc1NC(=O)Nc1ccc(-c2cncc3c2cnn3C)cc1` [Example 14.3, 1-(5-tert-Butyl-2-methyl-2H-pyrazol-3-yl)-3-[4-(1-methyl-1H-pyrazolo[3,4-c]pyridin-4-yl)-phenyl]-urea], the IC50 at Tie2 [1] and at Tie2 [2] was below 501 nM each time.

In the case of `Cn1ncc2c(-c3ccc(NC(=O)Nc4cc(C(F)(F)F)ccn4)c(F)c3)cncc21` [Example 14.5, 1-[2-Fluoro-4-(1-methyl-1H-pyrazolo[3,4-c]pyridin-4-yl)-phenyl]-3-(4-trifluoromethyl-pyridin-2-yl)-urea], the IC50 on Tie2 [1] and at Tie2 [2] was below 501 nM each time.
